This passage reports EC50 results from US12054495B2, “Substituted macrocyclic compounds and related methods of treatment” (Alkermes, Inc., priority 2019, dated 2024).

The target in this assay is T1, human orexin-2 receptor (OX2R) (Homo sapiens, UniProt O43614).
T1 construct: expressed in transfected cells
T1 sequence (O43614 1-444): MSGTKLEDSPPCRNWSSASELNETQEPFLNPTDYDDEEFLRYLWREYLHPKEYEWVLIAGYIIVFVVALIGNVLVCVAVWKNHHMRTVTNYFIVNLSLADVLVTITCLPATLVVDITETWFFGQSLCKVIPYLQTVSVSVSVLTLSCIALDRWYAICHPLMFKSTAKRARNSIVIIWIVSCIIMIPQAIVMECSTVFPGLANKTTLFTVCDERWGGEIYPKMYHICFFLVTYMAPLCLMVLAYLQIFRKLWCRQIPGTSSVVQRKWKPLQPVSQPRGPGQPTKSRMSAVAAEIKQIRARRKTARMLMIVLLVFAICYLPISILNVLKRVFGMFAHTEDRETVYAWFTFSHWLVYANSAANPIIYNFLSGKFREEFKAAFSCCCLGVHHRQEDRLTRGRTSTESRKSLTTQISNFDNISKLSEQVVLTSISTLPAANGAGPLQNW
The assay is described as follows: Human OX2R IP1 assay. The class given is cell-based. The conditions noted are these: T-Rex CHO cells stably overexpressing human OX2R, IP1 accumulation, 1 hr at 37 degrees C; mean EC50; ∧ = racemic mixture. Here is the method:
T-Rex CHO cells stably overexpressing the human orexin-2 receptor (OX2R) were induced overnight with 1 μg/mL of doxycycline in a T225 flask. 24 hours post induction, cells were lifted with accutase and plated into a 384-well proxy plate at 30,000 cells/well. Cells were then treated with different test compounds in 1× stimulation buffer containing 10 mM Hepes, 1 mM CaCl2), 0.5 mM MgCl2, 4.2 mM KCl, 146 mM NaCl, 5.5 mM glucose, and 50 mM LiCl, pH 7.4, for 1 hr at 37 degrees C. Following incubation, the reaction was terminated by the addition of detection mix, which is composed of IP1-d2 and anti-IP1-cryptate diluted in lysis buffer as well as 1× stimulation buffer. The plates were allowed to incubate for 1 hour at room temperature and were then read in the EnVision® multimode plate reader, measuring inositol phosphate levels.
Cisbio IP1 is a cell-based functional assay quantifying the accumulation of inositol monophosphate (IP), a metabolite released as a result of orexin 2 receptor activation through the phospholipase C-Gq signaling pathway. This is a competitive immunoassay in which the IP1 produced by the cells upon receptor activation competes with the IP1 analog coupled to the d2 fluorophore (acceptor) for binding to an anti-IP1 monoclonal antibody labeled with Eu cryptate (donor). The measured HTRF-FRET based signal is inversely proportional to the IP1 concentration produced.
The EC50 values reported in Table 2 were obtained according to the human OX2R IP1 assay described above. Data are the mean EC50 values ±S.E.M. The compound methyl (2R,3S)-3-((methylsulfonyl)amino)-2-(((cis-4-phenylcyclohexyl)oxy)methyl)-piperidine-1-carboxylate is a reference compound which is disclosed in Example 5 of PCT publication no. WO2017/135306.
In general, EC50 refers to the midpoint of the concentration-response curve. On to `CS(=O)(=O)N[C@H]1CCCN2C(=O)CCOc3ccccc3[C@H]3CC[C@H](CC3)OC[C@@H]12` [Compound 1], for which the EC50 was < 0.1 µM.
The value for `CS(=O)(=O)N[C@H]1CCCN2C(=O)COc3ccccc3[C@H]3CC[C@H](CC3)OC[C@@H]12` [Compound 2] was < 0.1 µM; that for `CS(=O)(=O)N[C@H]1CCCN2C(=O)CCCCOc3ccccc3[C@H]3CC[C@H](CC3)OC[C@@H]12` [Compound 3] was > 1 µM.
The value for `CS(=O)(=O)N[C@H]1CCCN2C(=O)CCCOc3ccccc3[C@H]3CC[C@H](CC3)OC[C@@H]12` [Compound 4] was < 0.1 µM; that for `CS(=O)(=O)N[C@H]1CCCN2CCCOc3ccccc3[C@H]3CC[C@H](CC3)OC[C@@H]12` [Compound 5] was > 1 µM; that for `CS(=O)(=O)N[C@H]1CCCN2CCOc3ccccc3[C@H]3CC[C@H](CC3)OC[C@@H]12` [Compound 6] was < 0.1 µM.
The result for `CS(=O)(=O)N[C@H]1CCN2C(=O)COc3ccccc3[C@H]3CC[C@H](CC3)OC[C@@H]12` [Compound 7] reads < 0.1 µM; that for `CS(=O)(=O)N[C@H]1CCCN2C(=O)CCc3ccccc3[C@H]3CC[C@H](CC3)OC[C@@H]12` [Compound 10], 0.1 to 1 µM.
For the compound `CS(=O)(=O)N[C@H]1CCCN2C(=O)COc3c(F)cccc3[C@H]3CC[C@H](CC3)OC[C@@H]12` [Compound 11], the EC50 is < 0.1 µM.
The value for `CS(=O)(=O)N[C@H]1CCCN2C(=O)COc3c(F)cc(F)cc3[C@H]3CC[C@H](CC3)OC[C@@H]12` [Compound 12] was < 0.1 µM; that for `CS(=O)(=O)N[C@H]1CCCN2CCOc3c(F)cccc3[C@H]3CC[C@H](CC3)OC[C@@H]12` [Compound 13] was 0.1 to 1 µM.
The value for `CS(=O)(=O)N[C@H]1CCN2C(=O)COc3ncccc3[C@H]3CC[C@H](CC3)OC[C@@H]12` [Compound 18] was 0.1 to 1 µM; that for `CC1(C)Oc2ccccc2[C@H]2CC[C@H](CC2)OC[C@H]2[C@@H](NS(C)(=O)=O)CCCN2C1=O` [Compound 36] was < 0.1 µM; that for `CS(=O)(=O)N[C@H]1CCN2CCOc3ccccc3[C@H]3CC[C@H](CC3)OC[C@@H]12` [Compound 39] was > 1 µM.
The value for `CS(=O)(=O)N[C@H]1CCCN2C(=O)C(F)(F)Oc3ccccc3[C@H]3CC[C@H](CC3)OC[C@@H]12` [Compound 40] was < 0.1 µM; that for `CS(=O)(=O)N[C@H]1CCCN2CC(F)(F)Oc3ccccc3[C@H]3CC[C@H](CC3)OC[C@@H]12` [Compound 41] was > 1 µM.
In the case of `CS(=O)(=O)N[C@H]1CCN2C(=O)COc3c(F)cccc3[C@H]3CC[C@H](CC3)OC[C@@H]12` [Compound 42], the EC50 was < 0.1 µM.
The result for `CS(=O)(=O)N[C@H]1CCN2C(=O)COc3c(F)cc(F)cc3[C@H]3CC[C@H](CC3)OC[C@@H]12` [Compound 43] reads < 0.1 µM; that for `CC1(C)CN2CCC[C@H](NS(C)(=O)=O)[C@@H]2CO[C@H]2CC[C@H](CC2)c2ccccc2O1` [Compound 44], 0.1 to 1 µM.
With `CS(=O)(=O)N[C@H]1CCCN2C(=O)COc3ncccc3[C@H]3CC[C@H](CC3)OC[C@@H]12` [Compound 46], the EC50 is < 0.1 µM.
The value for `CS(=O)(=O)N[C@H]1CCCN2C(=O)COc3ccc(Cl)cc3[C@H]3CC[C@H](CC3)OC[C@@H]12` [Compound 51] was < 0.1 µM.
The value for `CS(=O)(=O)N[C@H]1CCCN2C(=O)C(F)(F)Oc3c(F)cc(F)cc3[C@H]3CC[C@H](CC3)OC[C@@H]12` [Compound 52] was < 0.1 µM; that for `CS(=O)(=O)N[C@H]1CCN2C(=O)C(F)(F)Oc3ccccc3[C@H]3CC[C@H](CC3)OC[C@@H]12` [Compound 53] was < 0.1 µM.
Turning to `CS(=O)(=O)N[C@H]1CCN2C(=O)C(F)(F)Oc3c(F)cc(F)cc3[C@H]3CC[C@H](CC3)OC[C@@H]12` [Compound 54], the EC50 was < 0.1 µM.
`CS(=O)(=O)N[C@H]1CCCN2C(=O)COc3nccnc3[C@H]3CC[C@H](CC3)OC[C@@H]12` [Compound 55]: the EC50 was < 0.1 µM.
